# Tests used:
# HaCaT cells = assay: Suspension survival assay of HaCaT keratinocytes; type: cell-based, human
# Procedure: FIG. 8 is presented to complementary roles of tyrosine kinase and small GTPase signals induced by integrin or growth factor stimulation, in PI3K/Akt activation and cell survival. […] Akt kinase activity in cell lysates harvested 30 minutes later was measured by in vitro phosphorylation of H2B. […] HaCaT cells or HaCaT cells stably-expressing activated H-Ras G12V were cultured on 0.9% agarose in MCDB base medium. EGF was used at 2 nM concentration in the indicated culltures. Cell aliquots were removed after 6 hours in suspension for immunoblot analysis. Cell viability was examined after 10 days in suspension as described (Jost et al., 2001, Mol Biol Cell 12, 1519-27). (C) A model of PI3K activation by tyrosine kinase- and small GTPase signals. According to this model, p85 binds, via its cSH2 motif, tyrosine phosphorylated proteins and undergoes phosphorylation at Y688. Phosphorylation at this site, functionally inactivates the p85 inhibitory domain. Neutralization of the inhibitory domain renders p85 responsive to PI3K activation signals that are transduced by small GTPases.
# These experiments were carried out in serum-free define media. The constitutively-active H-Ras G12V activates the PI3K/Akt pathway and rescues cells from anoikis only in suspension cultures supplemented with epidermal growth factor (EGF) (FIG. 8B). […] Thus, PI3K/Akt activation and inhibition of anoikis depend on the combination of tyrosine kinase and small GTPase signals.
# Suspension survival assay were performed as previously described (Jost et al., 2001, Mol Biol Cell 12, 1519-27). […] Cell viability was measured after 10 days in suspension. Cell viability was analysed by crystal violet staining of cells reseeded after 10 days of suspension culture onto tissue culture-treated plastic and allowed to grow for 3 days. […]
# PI3K = assay: PtdIns-3,4,5-P3 measured by thin layer chromatography in lipid extracts of 32P-labeled transfected NIH3T3 cells; type: cell-based, mouse; settings: construct co-transfected with constitutively-active H-Ras G12V; serum-free; 32P-orthophosphate 1.5 h
# Procedure: In FIG. 1, it is shown that p85 inhibits while p85Δonc enhances PI3K activation by small GTPases. (A) Schematic diagrams and expression of transiently transfected HA-tagged p85-WT and p85Δonc constructs. (B) Upper panel. p85-WT inhibits while p85Δonc enhances HRas-induced PtdIns-3, 4, 5-P3 production. The indicated constructs were transiently transfected into NIH3T3 cells. Sixteen hours after transfection, the cells were cultured in serum-free media. Five hours later, they were labeled with ^32P-orthophosphate for 1.5 hours. Total phospholipids were analyzed by thin layer chromatography. (B) Lower panel. p85-WT inhibits while p85Δonc enhances H-Ras induced Akt phosphorylation. Immunoblots of cell extracts from duplicate transfections were probed with an antibody that recognizes Akt phosphorylated at Thr308 or with antibodies that recognize the proteins expressed from the transfected constructs. […] NIH3T3 cells were transiently transfected with the indicated constructs. ^32P-labeled PtdIns-3, 4, 5-P3 was measured as described in B. Akt phosphorylation at Thr308 and expression of transfected constructs were determined by probing immunoblots with the corresponding antibodies. […]
# PtdIns-3, 4, 5-P3 was measured in lipid extracts of ^32P-labeled NIH3T3 cells by thin layer chromatography (Maehama et al., 1998, J Biol Chem 273, 13375-8). […]
# PI3K/Akt pathway = assay: Akt activation in transfected NIH3T3 cells (H2B phosphorylation by immunoprecipitated FLAG-Akt, or Akt Thr308 immunoblot); type: cell-based, mouse
# Description: Specifically, to show whether membrane-associated full-length p85 is functionally similar to the carboxy-terminally truncated protein the p85 fused at its amino-terminus to a peptide encoding the Src myristoylation signal (Myrp85-WT) (FIG. 2A), was transiently expressed in NIH3T3 cells in combination with FLAG-Akt or FLAG-Akt plus H-Ras. Myrp85Δonc was used as a control. The cells were lysed forty-eight hours later, following overnight serum starvation. Akt activation in this, and subsequent experiments, was determined by measuring the phosphorylation of histone 2B (H2B) by immunoprecipitated Akt.
# Akt/PKB activation by phosphorylation strictly depends on the binding of the Akt PH domain to PtdIns-3,4,5-P3 and therefore, indirectly measures intracellular PtdIns-3,4,5-P3 levels (Chan et al., 1999, Ann Rev Biochem 68, 965-1015). Akt/PKB kinase activation was determined either by measuring the phosphorylation of Akt at Thr308 using an antibody from Cell Signaling Technology or by measuring the kinase activity of immunoprecipitated FLAG-tagged wild type Akt. The activity of immunoprecepitated Akt was measured using Histone 2B as the substrate, and following previously described protocols (Bellacosa et al., 1998, Oncogene 17, 313-25; Franke et al., 1995, Cell 81, 727-736) with slight modifications. Briefly, cells were lysed on ice using a NP40 lysis buffer (25 mM Tris-HCl pH 7.6, 137 mM NaCl, 10% glycerol, 1% NP40, 10 mM NaF) freshly supplemented with 1 mM Sodium pyrophosphate, 5 μg/ml leupeptin, 5 μg/ml aprotinin, 1 mM EDTA, 10 mM PMSF, 1 mM NaVO4 and 1 mM DTT. […] The phosphorylated Histone H2B was visualized by autoradiography and quantitated by Phosphorlmager (Molecular Dynamics). Akt expression was determined by probing the membranes with a polyclonal rabbit anti-Akt antibody.
# Specific Akt kinase activity was determined by Phosphorimager-quantitation of the ^32P-phosphorylated Akt substrate Histone 2B, and by quantification of Akt in anti-Akt immunoprecipitates using a laser densitometry scanner (Molecular Dynamics). […]
Substance,"Long-term cell survival (10 days) in suspension, cells expressing activated H-Ras G12V (HaCaT cells; EGF 2 nM, serum-free defined medium)","Rescue from anoikis, HaCaT cells without H-Ras G12V (HaCaT cells; EGF alone, 2 nM)","PI3K/Akt activation, HaCaT cells without H-Ras G12V (HaCaT cells; EGF alone, 2 nM, 6 hours in suspension)","H-Ras-induced PtdIns-3, 4, 5-P3 production (PI3K)","PI3K activation by Ras signals in the presence of NM-Src (PI3K/Akt pathway; H-Ras-G12V plus NM-Src, PtdIns-3,4,5-P3 and Akt Thr308)","H-Ras induced Akt phosphorylation at Thr308 (PI3K/Akt pathway; co-transfected with H-Ras G12V, immunoblot)","PI3K/Akt activation by H-Ras (Akt kinase activity, H2B phosphorylation) (PI3K/Akt pathway; co-transfected with constitutively-active H-Ras and FLAG-Akt, overnight serum starvation)"
"epidermal growth factor (NSDSECPLSHDGYCLHDGVCMYIEALDKYACNCVVGYIGERCQYRDLKWWELR; Epidermal growth factor; UniProt P01133 971-1023, looked up) [EGF]",cooperate to support long-term cell survival,failed to rescue,inefficient,–,–,–,–
"p85-WT: HA-tagged construct of wild-type p85, regulatory subunit of PI3K",–,–,–,inhibits,does not inhibit,inhibits,blocks
